Read-outs that look alike come from different tables or passages of the source.
What was measured:
Type in all cases: in vivo
Kochia (Kochia scoparia) [1] = assay: Test A preemergence; conditions: Bassia scoparia, pre-emergence, 240 h; for pest or weed control at 125 g/ha: 125 g ai/ha, read-out: Plant response rating, Kochia; for pest or weed control at 500 g/ha: 500 g ai/ha
How it was run: (§1)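 Each rating is a visual injury score from 0 to 100 given about 10 d after treatment, judged against untreated controls kept alongside in the greenhouse. In loam soil–sand blend, seeds got a preemergence directed soil spray, while postemergence plants were 2 to 10 cm tall at spraying.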

[2] = tested on: giant foxtail (Setaria faberii); assay: Test A preemergence; conditions: Setaria faberi, pre-emergence, 240 h; for pest or weed control at 125 g/ha: 125 g ai/ha, read-out: Plant response rating, Foxtail, Giant; for pest or weed control at 500 g/ha: 500 g ai/ha
How it was run: as §1

[3] = tested on: ryegrass, Italian (Italian ryegrass, Lolium multiflorum); assay: Test A preemergence; conditions: Lolium multiflorum, pre-emergence, 240 h; for pest or weed control at 125 g/ha: 125 g ai/ha, read-out: Plant response rating, Ryegrass, Italian; for pest or weed control at 500 g/ha: 500 g ai/ha, visual injury vs untreated controls after approximately 10 d, read-out: Ryegrass, Italian plant response rating (0 to 100 scale where 0 is no effect and 100 is complete control)
How it was run: as §1

[4] = tested on: ragweed (common ragweed, Ambrosia elatior); assay: Test A preemergence; conditions: Ambrosia artemisiifolia, pre-emergence, 240 h; for pest or weed control at 125 g/ha: 125 g ai/ha, read-out: Plant response rating, Ragweed; for pest or weed control at 500 g/ha: 500 g ai/ha
How it was run: as §1

[5] = tested on: barnyardgrass (Echinochloa crus-galli); assay: Test A preemergence; conditions: Echinochloa crus-galli, pre-emergence, 240 h; for pest or weed control at 125 g/ha: 125 g ai/ha, read-out: Plant response rating, Barnyardgrass; for pest or weed control at 500 g/ha: 500 g ai/ha
How it was run: as §1

[6] = tested on: pigweed (Amaranthus retroflexus); assay: Test A preemergence; conditions: Amaranthus retroflexus, pre-emergence, 240 h; for pest or weed control at 125 g/ha: 125 g ai/ha, read-out: Plant response rating, Pigweed; for pest or weed control at 500 g/ha: 500 g ai/ha
[7] = tested on: ducksalad (Heteranthera limosa); assay: Test B flooded paddy test; conditions: Heteranthera limosa, Flood, 250 g ai/ha, read-out: Ducksalad plant response rating
How it was run: (§2)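 Compound goes directly into floodwater once pots are flooded 3 cm above soil, targeting plants at two leaves; the water depth is then held for the test duration. Plants sit 13–15 d in a greenhouse and are rated visually, 100 denoting complete control.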

rice (Oryra sativa) = assay: Test B flooded paddy test; conditions: Oryza sativa, Flood, 250 g ai/ha, read-out: Rice plant response rating
How it was run: as §2

[8] = tested on: sedge, umbrella (small-flower umbrella sedge, Cyperus difformis); assay: Test B flooded paddy test; conditions: Cyperus difformis, Flood, 250 g ai/ha
How it was run: as §2

[9] = tested on: barnyardgrass (Echinochloa crus-galli); assay: Test B flooded paddy test; conditions: Echinochloa crus-galli, Flood, 250 g ai/ha, read-out: Barnyardgrass plant response rating
How it was run: as §2

Kochia (Kochia scoparia) [10] = assay: Test A postemergence; conditions: Bassia scoparia, post-emergence, 240 h; for pest or weed control at 125 g/ha: 125 g ai/ha
How it was run: as §1

[11] = tested on: giant foxtail (Setaria faberii); assay: Test A postemergence; conditions: Setaria faberi, post-emergence, 240 h; for pest or weed control at 125 g/ha: 125 g ai/ha
How it was run: as §1

[12] = tested on: ryegrass, Italian (Italian ryegrass, Lolium multiflorum); assay: Test A postemergence; conditions: Lolium multiflorum, post-emergence, 240 h; for pest or weed control at 125 g/ha: 125 g ai/ha
How it was run: as §1

[13] = tested on: blackgrass (Alopecurus myosuroides); assay: Test A postemergence; conditions: Alopecurus myosuroides, post-emergence, 240 h, 125 g ai/ha, postemergence; visual injury after approximately 10 d; 0 to 100 scale (0 no effect, 100 complete control); read-out: Plant response rating, Blackgrass
How it was run: as §1

[14] = preemergence, visual rating after approx. 10 d, 0 to 100 scale where 0 is no effect and 100 is complete control
[15] = Preemergence, visual injury vs untreated controls after approximately 10 d, read-out: Kochia plant response rating (0 to 100 scale where 0 is no effect and 100 is complete control)
[16] = Preemergence, visual injury vs untreated controls after approximately 10 d, read-out: Foxtail, Giant plant response rating (0 to 100 scale where 0 is no effect and 100 is complete control)
[17] = Preemergence, visual injury vs untreated controls after approximately 10 d, read-out: Ragweed plant response rating (0 to 100 scale where 0 is no effect and 100 is complete control)
[18] = Preemergence, visual injury vs untreated controls after approximately 10 d, read-out: Barnyardgrass plant response rating (0 to 100 scale where 0 is no effect and 100 is complete control)
[19] = Preemergence, visual injury vs untreated controls after approximately 10 d, read-out: Pigweed plant response rating (0 to 100 scale where 0 is no effect and 100 is complete control)
[20] = scale of 0 to 100 where 0 is no effect and 100 is complete control
[21] = scale of 0 to 100 where 0 is no effect and 100 is complete control, read-out: Sedge, Umbrella plant response rating
[22] = postemergence, visual injury after approximately 10 d, 0 to 100 scale (0 no effect, 100 complete control), read-out: Plant response rating, Kochia
[23] = postemergence, visual injury after approximately 10 d, 0 to 100 scale (0 no effect, 100 complete control), read-out: Plant response rating, Foxtail, Giant
[24] = postemergence, visual injury after approximately 10 d, 0 to 100 scale (0 no effect, 100 complete control), read-out: Plant response rating, Ryegrass, Italian
[25] = Preemergence, 0 to 100 scale (0 no effect, 100 complete control)
[26] = 0 to 100 scale where 0 is no effect and 100 is complete control

For `CN1C[C@H](c2ccc(C#N)cc2)[C@@H](C(=O)Nc2cccc(F)c2F)C1=O` (racemic) [Compound 775], the pest or weed control at 125 g/ha (Kochia (Kochia scoparia) [1]; [14]) was 30%, the pest or weed control at 500 g/ha (Kochia (Kochia scoparia) [1]; [15]) was 80% and the pest or weed control at 125 g/ha [2, 14] was 80%. For the same molecule, the pest or weed control at 500 g/ha [2, 16] was 100%, the pest or weed control at 125 g/ha [3, 14] was 0% and the pest or weed control at 500 g/ha ([3]; Preemergence) was 0%. The pest or weed control at 125 g/ha [4, 14] was 50%, the pest or weed control at 500 g/ha [4, 17] was 80% and the pest or weed control at 125 g/ha [5, 14] was 60%. The pest or weed control at 500 g/ha [5, 18] was 100%, the pest or weed control at 125 g/ha [6, 14] was 30% and the pest or weed control at 500 g/ha [6, 19] was 70%. It also gave a pest or weed control at 250 g/ha [7, 20] of 75%, a pest or weed control at 250 g/ha (rice (Oryra sativa); [20]) of 0% and a pest or weed control at 250 g/ha [8, 21] of 65%. The pest or weed control at 250 g/ha [9, 20] was 35%, the pest or weed control at 125 g/ha (Kochia (Kochia scoparia) [10]; [22]) was 40% and the pest or weed control at 125 g/ha [11, 23] was 60%. For the same molecule, the pest or weed control at 125 g/ha [12, 24] was 20% and the pest or weed control at 125 g/ha [13] was 0%.
`CN1C[C@H](c2cccc(S(C)(=O)=O)c2)[C@@H](C(=O)Nc2cccc(F)c2F)C1=O` (racemic) [Compound 777] was tested, and the pest or weed control at 125 g/ha (Kochia (Kochia scoparia) [1]; [14]) was 0%, the pest or weed control at 500 g/ha (Kochia (Kochia scoparia) [1]; [15]) was 0% and the pest or weed control at 125 g/ha [2, 14] was 80%. For the same molecule, the pest or weed control at 500 g/ha [2, 16] was 100%, the pest or weed control at 125 g/ha [3, 14] was 40% and the pest or weed control at 500 g/ha ([3]; Preemergence) was 70%. It also gave a pest or weed control at 125 g/ha [4, 14] of 0%, a pest or weed control at 500 g/ha [4, 17] of 0% and a pest or weed control at 125 g/ha [5, 14] of 70%. The pest or weed control at 500 g/ha [5, 18] was 100%, the pest or weed control at 125 g/ha [6, 14] was 0% and the pest or weed control at 500 g/ha [6, 19] was 40%. It also gave a pest or weed control at 250 g/ha [7, 20] of 0%, a pest or weed control at 250 g/ha (rice (Oryra sativa); [20]) of 20% and a pest or weed control at 250 g/ha [8, 21] of 0%. For the same molecule, the pest or weed control at 250 g/ha [9, 20] was 30%, the pest or weed control at 125 g/ha (Kochia (Kochia scoparia) [10]; [22]) was 0% and the pest or weed control at 125 g/ha [11, 23] was 30%. For the same molecule, the pest or weed control at 125 g/ha [12, 24] was 0% and the pest or weed control at 125 g/ha [13] was 0%.
In the case of `O=C1NC[C@H](c2ccc(OC(F)F)cc2)[C@H]1C(=O)Nc1ccc(F)cc1F` [Compound 1325], the pest or weed control at 500 g/ha (Kochia (Kochia scoparia) [1]; preemergence, 0 to 100 scale where 0 is no effect and 100 is complete control, read-out: Kochia plant response rating) is reported as 90%, the pest or weed control at 125 g/ha (Kochia (Kochia scoparia) [1]; [25]) is reported as 80% and the pest or weed control at 500 g/ha ([2]; preemergence, 0 to 100 scale where 0 is no effect and 100 is complete control, read-out: Foxtail, Giant plant response rating) is reported as 90%. The pest or weed control at 125 g/ha [2, 25] was 90%, the pest or weed control at 125 g/ha [3, 25] was 0% and the pest or weed control at 500 g/ha ([4]; preemergence, 0 to 100 scale where 0 is no effect and 100 is complete control, read-out: Ragweed plant response rating) was 70%. It also gave a pest or weed control at 125 g/ha [4, 25] of 10%, a pest or weed control at 500 g/ha ([5]; preemergence, 0 to 100 scale where 0 is no effect and 100 is complete control, read-out: Barnyardgrass plant response rating) of 90% and a pest or weed control at 125 g/ha [5, 25] of 90%. It also gave a pest or weed control at 500 g/ha ([6]; preemergence, 0 to 100 scale where 0 is no effect and 100 is complete control, read-out: Pigweed plant response rating) of 90%, a pest or weed control at 125 g/ha [6, 25] of 60% and a pest or weed control at 250 g/ha [7, 26] of 100%. For the same molecule, the pest or weed control at 250 g/ha (rice (Oryra sativa); [26]) was 0%, the pest or weed control at 250 g/ha ([8]; 360 h, visually evaluated after 13 to 15 d, read-out: Plant response rating, Sedge, Umbrella (0 to 100 scale where 0 is no effect and 100 is complete control)) was 0% and the pest or weed control at 250 g/ha [9, 26] was 15%. It also gave a pest or weed control at 125 g/ha (Kochia (Kochia scoparia) [10]; Postemergence, visual rating about 10 d after treatment, read-out: Kochia plant response rating (0 to 100 scale)) of 70%, a pest or weed control at 500 g/ha (Kochia (Kochia scoparia) [10]; Postemergence, 500 g ai/ha, visual injury, 0 to 100 scale (0 no effect, 100 complete control), approx. 10 d, read-out: Plant response rating, Kochia) of 80% and a pest or weed control at 125 g/ha ([11]; Postemergence, visual rating about 10 d after treatment, read-out: Foxtail, Giant plant response rating (0 to 100 scale)) of 80%. For the same molecule, the pest or weed control at 500 g/ha ([11]; Postemergence, 500 g ai/ha, visual injury, 0 to 100 scale (0 no effect, 100 complete control), approx. 10 d, read-out: Plant response rating, Foxtail, Giant) was 90%, the pest or weed control at 125 g/ha ([12]; Postemergence, visual rating about 10 d after treatment, read-out: Ryegrass, Italian plant response rating (0 to 100 scale)) was 0% and the pest or weed control at 500 g/ha ([12]; Postemergence, 500 g ai/ha, visual injury, 0 to 100 scale (0 no effect, 100 complete control), approx. 10 d, read-out: Plant response rating, Ryegrass, Italian) was 0%.

Source: patent US12077503B2, “Substituted cyclic amides and their use as herbicides” (FMC CORPORATION, priority 2015, dated 2024)
